The assay relates to recombinant NL-Rluc virus. The assay can be described thus: Inhibition of HIV replication (NL-RLuc luciferase reporter virus, MT-2 cells). It counts as cell-based. Conditions: Human immunodeficiency virus 1, MT2, 120 h; for pEC50: read-out: Activity; for EC50: read-out: EC50 μM.

The values below come from patent US8791108B2, “Inhibitors of human immunodeficiency virus replication” (priority 2011, dated 2014).

Each structure is given as a SMILES string. pEC50: −log10 of the molar value. Where two headings read alike, the source gives them in different places.

A word on the EC50: it is the concentration needed to bring the measured effect to its halfway point. For `Cc1cc(CNC(=O)c2cc3nc(C)c(C(OC(C)(C)C)C(=O)O)c(-c4cc(F)c5c(c4C)CCCO5)n3n2)ccc1F` (stereo in doubt) [Example 3, (2S)-2-(tert-Butoxy)-2-(2-((4-fluoro-3-methylbenzyl)carbamoyl)-7-(8-fluoro-5-methylchroman-6-yl)-5-methylpyrazolo[1,5-a]pyrimidin-6-yl)acetic acid], the pEC50 was > 7.00 and the EC50 turned out to be 0.032 µM. As for `Cc1nc2cc(C(=O)NCc3cccc(N4CCOCC4)c3)nn2c(-c2cc(F)c3c(c2C)CCCO3)c1[C@H](OC(C)(C)C)C(=O)O` [Example 100], the pEC50 was 6.00 to 7.00. On to `Cc1nc2cc(C(=O)NCc3ccco3)nn2c(-c2cc(F)c3c(c2C)CCCO3)c1[C@H](OC(C)(C)C)C(=O)O` [Example 38, (2S)-2-(tert-butoxy)-2-(7-(8-fluoro-5-methylchroman-6-yl)-2-((furan-2-ylmethyl)carbamoyl)-5-methylpyrazolo[1,5-a]pyrimidin-6-yl)acetic acid], for which the pEC50 is 6.00 to 7.00 and the EC50 is 0.167 µM. Take `Cc1nc2cc(C(=O)N(Cc3ccccc3)C(C)C)nn2c(-c2cc(F)c3c(c2C)CCCO3)c1[C@H](OC(C)(C)C)C(=O)O` [Example 113, (2S)-2-(2-(benzyl(isopropyl)carbamoyl)-7-(8-fluoro-5-methylchroman-6-yl)-5-methylpyrazolo[1,5-a]pyrimidin-6-yl)-2-(tert-butoxy)acetic acid]: the pEC50 is > 7.00. The same measure, in the same setting: under `Cc1nc2cc(C(=O)N3CCN(c4ccccc4)CC3)nn2c(-c2cc(F)c3c(c2C)CCCO3)c1[C@H](OC(C)(C)C)C(=O)O` [Example 93, (2S)-2-(tert-butoxy)-2-(7-(8-fluoro-5-methylchroman-6-yl)-5-methyl-2-(4-phenylpiperazine-1-carbonyl)pyrazolo[1,5-a]pyrimidin-6-yl)acetic acid] stands > 7.00; under `Cc1nc2cc(C(=O)Nc3cc(-c4ccccc4)nn3C)nn2c(-c2cc(F)c3c(c2C)CCCO3)c1[C@H](OC(C)(C)C)C(=O)O` [Example 84, (2S)-2-(tert-butoxy)-2-(7-(8-fluoro-5-methylchroman-6-yl)-5-methyl-2-((1-methyl-3-phenyl-1H-pyrazol-5-yl)carbamoyl)pyrazolo[1,5-a]pyrimidin-6-yl)acetic acid], > 7.00. On the same count and under the same terms, to `Cc1nc2cc(C(=O)NCCc3ccc(F)cc3)nn2c(-c2cc(F)c3c(c2C)CCCO3)c1[C@H](OC(C)(C)C)C(=O)O` [Example 57, (2S)-2-(tert-butoxy)-2-(7-(8-fluoro-5-methylchroman-6-yl)-2-((4-fluorophenethyl)carbamoyl)-5-methylpyrazolo[1,5-a]pyrimidin-6-yl)acetic acid] belongs > 7.00; to `Cc1ccc(NC(=O)c2cc3nc(C)c([C@H](OC(C)(C)C)C(=O)O)c(-c4cc(F)c5c(c4C)CCCO5)n3n2)cc1` [Example 15, (2S)-2-(tert-butoxy)-2-(7-(8-fluoro-5-methylchroman-6-yl)-5-methyl-2-(p-tolylcarbamoyl)pyrazolo[1,5-a]pyrimidin-6-yl)acetic acid], > 7.00; to `Cc1nc2cc(C(=O)N3CCN(Cc4ccc5c(c4)OCO5)CC3)nn2c(-c2cc(F)c3c(c2C)CCCO3)c1[C@H](OC(C)(C)C)C(=O)O` [Example 92, (2S)-2-(2-(4-(benzo[d][1,3]dioxol-5-ylmethyl)piperazine-1-carbonyl)-7-(8-fluoro-5-methylchroman-6-yl)-5-methylpyrazolo[1,5-a]pyrimidin-6-yl)-2-(tert-butoxy)acetic acid], 6.00 to 7.00. Same read-out and setting: to `Cc1ccc(CN(C)C(=O)c2cc3nc(C)c([C@H](OC(C)(C)C)C(=O)O)c(-c4cc(F)c5c(c4C)CCCO5)n3n2)cc1` [Example 32, (2S)-2-(tert-butoxy)-2-(7-(8-fluoro-5-methylchroman-6-yl)-5-methyl-2-(methyl(4-methylbenzyl)carbamoyl)pyrazolo[1,5-a]pyrimidin-6-yl)acetic acid] belongs > 7.00; to `Cc1nc2cc(C(=O)NCC(C)(C)C)nn2c(-c2cc(F)c3c(c2C)CCCO3)c1[C@H](OC(C)(C)C)C(=O)O` [Example 127, (2S)-2-(tert-butoxy)-2-(7-(8-fluoro-5-methylchroman-6-yl)-5-methyl-2-(neopentylcarbamoyl)pyrazolo[1,5-a]pyrimidin-6-yl)acetic acid], 6.00 to 7.00.

Take `COc1cccc(CNC(=O)c2cc3nc(C)c([C@H](OC(C)(C)C)C(=O)O)c(-c4cc(F)c5c(c4C)CCCO5)n3n2)c1` [Example 71]: the pEC50 was > 7.00. Still for that read-out and setting: to `Cc1nc2cc(C(=O)NCc3ccc(C(F)(F)F)cc3)nn2c(-c2cc(F)c3c(c2C)CCCO3)c1[C@H](OC(C)(C)C)C(=O)O` [Example 66, (2S)-2-(tert-butoxy)-2-(7-(8-fluoro-5-methylchroman-6-yl)-5-methyl-2-((4-(trifluoromethyl)benzyl)carbamoyl)pyrazolo[1,5-a]pyrimidin-6-yl)acetic acid] belongs > 7.00; to `CCc1cc(CNC(=O)c2cc3nc(C)c([C@H](OC(C)(C)C)C(=O)O)c(-c4cc(F)c5c(c4C)CCCO5)n3n2)ccc1F` [Example 24, (2S)-2-(tert-butoxy)-2-(2-((3-ethyl-4-fluorobenzyl)carbamoyl)-7-(8-fluoro-5-methylchroman-6-yl)-5-methylpyrazolo[1,5-a]pyrimidin-6-yl)acetic acid], > 7.00; to `Cc1nc2cc(C(=O)N3CCC(CCO)CC3)nn2c(-c2cc(F)c3c(c2C)CCCO3)c1[C@H](OC(C)(C)C)C(=O)O` [Example 106, (2S)-2-(tert-butoxy)-2-(7-(8-fluoro-5-methylchroman-6-yl)-2-(4-(2-hydroxyethyl)piperidine-1-carbonyl)-5-methylpyrazolo[1,5-a]pyrimidin-6-yl)acetic acid], < 6.00. On the same count and under the same terms, to `Cc1cc(CNC(=O)c2cc3nc(C)c([C@H](OC(C)(C)C)C(=O)O)c(N4CCC(C)(C)CC4)n3n2)ccc1F` [Example 151, (S)-2-(tert-Butoxy)-2-(7-(4,4-dimethylpiperidin-1-yl)-2-((4-fluoro-3-methylbenzyl)carbamoyl)-5-methylpyrazolo[1,5-a]pyrimidin-6-yl)acetic acid] belongs > 7.00.

For `Cc1nc2cc(C(=O)NCCC(C)(C)C)nn2c(N2CCC(C)(C)CC2)c1[C@H](OC(C)(C)C)C(=O)O` [Example 152, (S)-2-(tert-Butoxy)-2-(2-((3,3-dimethylbutyl)carbamoyl)-7-(4,4-dimethylpiperidin-1-yl)-5-methylpyrazolo[1,5-a]pyrimidin-6-yl)acetic acid], the pEC50 was > 7.00 and the EC50 was 0.03 µM. Turning to `Cc1nc2cc(C(=O)NCc3ccc(F)cc3-c3ncnn3C)nn2c(-c2cc(F)c3c(c2C)CCCO3)c1[C@H](OC(C)(C)C)C(=O)O` [Example 18, (2S)-2-(tert-butoxy)-2-(2-((4-fluoro-2-(1-methyl-1H-1,2,4-triazol-5-yl)benzyl)carbamoyl)-7-(8-fluoro-5-methylchroman-6-yl)-5-methylpyrazolo[1,5-a]pyrimidin-6-yl)acetic acid], the pEC50 was 6.00 to 7.00 and the EC50 amounted to 0.547 µM. On the same counts, the results for `Cc1nc2cc(C(=O)NCCC(C)(C)C)nn2c(/C=C/CC(C)C)c1[C@H](OC(C)(C)C)C(=O)O` [Example 150, (S,E)-2-(tert-Butoxy)-2-(2-((3,3-dimethylbutyl)carbamoyl)-5-methyl-7-(4-methylpent-1-en-1-yl)pyrazolo[1,5-a]pyrimidin-6-yl)acetic acid] are < 6.00 and 1.2 µM. Take `Cc1nc2cc(C(=O)NCc3ccccc3)nn2c(-c2cc(F)c3c(c2C)CCCO3)c1[C@H](OC(C)(C)C)C(=O)O` [Example 4, (2S)-2-(2-(Benzylcarbamoyl)-7-(8-fluoro-5-methylchroman-6-yl)-5-methylpyrazolo[1,5-a]pyrimidin-6-yl)-2-(tert-butoxy)acetic acid]: the pEC50 was > 7.00. Same read-out and setting: under `Cc1nc2cc(C(=O)NCc3cccc(-c4ccccc4)c3)nn2c(-c2cc(F)c3c(c2C)CCCO3)c1[C@H](OC(C)(C)C)C(=O)O` [Example 69, (2S)-2-(2-(([1,1′-biphenyl]-3-ylmethyl)carbamoyl)-7-(8-fluoro-5-methylchroman-6-yl)-5-methylpyrazolo[1,5-a]pyrimidin-6-yl)-2-(tert-butoxy)acetic acid] stands > 7.00; under `Cc1nc2cc(C(=O)NCc3ccccc3C(F)(F)F)nn2c(-c2cc(F)c3c(c2C)CCCO3)c1[C@H](OC(C)(C)C)C(=O)O` [Example 125, (2S)-2-(tert-butoxy)-2-(7-(8-fluoro-5-methylchroman-6-yl)-5-methyl-2-((2-(trifluoromethyl)benzyl)carbamoyl)pyrazolo[1,5-a]pyrimidin-6-yl)acetic acid], > 7.00; under `Cc1cc(CNC(=O)c2nn3c(-c4cc(F)c5c(c4C)CCCO5)c([C@H](OC(C)(C)C)C(=O)O)c(C)nc3c2Cl)ccc1F` [Example 140, (2S)-2-(tert-Butoxy)-2-(3-chloro-2-((4-fluoro-3-methylbenzyl)carbamoyl)-7-(8-fluoro-5-methylchroman-6-yl)-5-methylpyrazolo[1,5-a]pyrimidin-6-yl)acetic acid], > 7.00. Still for that read-out and setting: to `Cc1nc2cc(C(=O)N(C)Cc3cccc(F)c3)nn2c(-c2cc(F)c3c(c2C)CCCO3)c1[C@H](OC(C)(C)C)C(=O)O` [Example 23] belongs > 7.00. On the same count and under the same terms, to `Cc1nc2cc(C(=O)N(C)Cc3cccnc3)nn2c(-c2cc(F)c3c(c2C)CCCO3)c1[C@H](OC(C)(C)C)C(=O)O` [Example 97, (2S)-2-(tert-butoxy)-2-(7-(8-fluoro-5-methylchroman-6-yl)-5-methyl-2-(methyl(pyridin-3-ylmethyl)carbamoyl)pyrazolo[1,5-a]pyrimidin-6-yl)acetic acid] belongs < 6.00. Take `Cc1nc2cc(C(=O)N[C@H]3C[C@@H]3c3ccccc3)nn2c(-c2cc(F)c3c(c2C)CCCO3)c1[C@H](OC(C)(C)C)C(=O)O` [Example 56, (2S)-2-(tert-butoxy)-2-(7-(8-fluoro-5-methylchroman-6-yl)-5-methyl-2-(((1S,2R)-2-phenylcyclopropyl)carbamoyl)pyrazolo[1,5-a]pyrimidin-6-yl)acetic acid]: the pEC50 is > 7.00.
